Test results as given in paper PMC12163684, “Gunacins: Novel Benzo[g]chromene Derivatives from the Fungus Exobasidium sp. and Their Potent Anti-Leishmania and Trypanosoma Activities” (ACS Omega, 2025).
Like-named read-outs stand apart in the source and are kept apart here.

Assays:
[1] = test system: HeLa adenocarcinoma cell line; assay: Effect on cell morphology, fluorescence microscopy (MitoTracker Red CMXRos, Phalloidin, DAPI); assay type: cell-based; conditions: 24 h; for concentration at which effects on morphology / mitochondrial signal were observed, HeLa cells: tested at 5, 25, 50, 100, 125 μM
Experimental: (§1) MDCK and RAT cells were cultured in DMEM with 10% FBS at 37 °C in a 5% CO2 atmosphere as described previously. , To assess the toxic effects of the compounds on proliferating cells, cells were seeded in 24-well plates for 24 h to reach ∼15% confluence, and cells were treated in triplicate with increasing concentrations of the isolated compounds for an additional 24 h. Cells were washed with 1× PBS, fixed in staining solution (0.5% crystal violet, 20% methanol) for 10 min, and gently washed five times in 1× PBS. The fixed cells were then dissolved in lysis solution (0.1 M sodium citrate, 25% ethanol, pH 4.2) for 30 min, transferred to a 96-well plate in H2O, and the OD^590 was determined. EC50 values were determined using GraphPad Prism software and the dose–response fit equation. The EC50 values were determined from two independent experiments. Additionally, the impact of the isolated substances on the morphology of the HeLa adenocarcinoma cell line and primary human skin fibroblasts was examined by using fluorescence microscopy. Cells were cultured in DME medium supplemented with 10% FCS (Gibco, Invitrogen, Carlsbad, USA) on glass coverslips in 24-well plates until reaching approximately 50% confluence. The cells were treated with varying concentrations of isolated compounds dissolved in DMSO. Wells containing DMEM with DMSO served as the negative control. After 24 h cultivation, the cells were incubated with MitoTracker Red CMXRos (10 min) to label mitochondria, then fixed with 3.7% paraformaldehyde in PBS (20 min, room temperature), permeabilized with 0.1% Triton X-100 in PBS, and blocked with 1% BSA in PBS. The cells were then stained with Phalloidin-Alexa Fluor488 conjugate. All fluorescence reagents were purchased from Molecular Probes, Invitrogen, Carlsbad, CA, USA. Nuclei were stained with Fluoroshield DAPI (Sigma-Aldrich), and cells were examined using an IX71 microscope equipped with a DP70 camera and a 40× objective. Assays were performed at concentrations of 5, 25, 50, 100, and 125 μM.

[2] = test system: primary human skin fibroblasts; assay: as above; assay type: cell-based; conditions: 24 h; for concentration at which effects on morphology / mitochondrial signal were observed, fibroblasts: tested at 5, 25, 50, 100, 125 μM
Experimental: as §1

RTL-W1 cell line = assay: Cell viability assay with fluorescent indicators AB, CFDA-AM and NR; assay type: cell-based, rainbow trout (Oncorhynchus mykiss); conditions: Oncorhynchus mykiss, 24 h exposure, n.d. = activity not detected at highest tested concentration 150 μM
Experimental: Cell viability assay was determined on cell line RTL-W1 (obtained from Eawag, Switzerland; liver tissue) of rainbow trout (Oncorhynchus mykiss) according to the modified procedure of Dayeh (2005). A combination of three fluorescent indicators, alamarBlue (AB), 5-carboxyfluorescein diacetate acetoxymethyl ester (CFDA-AM), and NR was used to assess different mechanisms of toxic action, evaluate the general cellular response and increase the sensitivity of the cytotoxicity tests. […] After 24 h of incubation in microculturing plates, the cells were exposed to concentration series of isolated compounds in 0.5% DMSO for another 24 h. After the exposition, the solutions were removed from individual wells followed by the washing step and the addition of 100 μL of a dye solution containing 0.625% AB and 0.4 μM CFDA-AM in […]. The cells were incubated at room temperature for 30 min, and the fluorescence was measured at excitation/emission wavelengths of 535/590 nm for the AB assay and 485/535 nm for the CFDA-AM assay. Afterward, the dye solution was removed, the cells were rinsed, and 100 μL of the NR solution was added (0.03 mg/mL in […]). After 60 min of incubation, the cells were rinsed twice, and NR was extracted from the cells using 150 μL of a solution consisting of 1% (v/v) glacial acetic acid in 50% (v/v) ethanol. The content of each well was repeatedly homogenized using a pipet, and the fluorescence was measured at excitation/emission wavelengths of 535/630 nm.

[3] = Alamar Blue, cellular metabolic activity, read-out: EC50 ± SEM RTL-W1 (AB)
[4] = CFDA-AM, cell membrane integrity, read-out: EC50 ± SEM RTL-W1 (CFDA)
[5] = Neutral Red, lysosomal membrane integrity, read-out: EC50 ± SEM RTL-W1 (NR)

Structure (SMILES)	concentration at which effects on morphology / mitochondrial signal were observed, HeLa cells [1]	concentration causing complete loss of live adherent cells, fibroblasts [2]	concentration at which effects on morphology / mitochondrial signal were observed, fibroblasts [2]	EC50 (RTL-W1 cell line; [3])	EC50 (RTL-W1 cell line; [4])	EC50 (RTL-W1 cell line; [5])	concentration causing complete loss of live adherent cells, HeLa cells [1]
COc1cc(O)c2c(c1)C(=O)C1=C(C[C@@H](OC(C)=O)[C@@H](C)O1)C2=O [Compound 7, (2R,3R)-6-hydroxy-8-methoxy-2-methyl-5,10-dioxo-3,4,5,10-tetrahydro-2H-benzo[g]chromen-3-yl acetate]	> 125 μM	125 µM	> 25 μM	–	–	–	–
COc1cc(O)c2c(c1)C(=O)C1=C(C2=O)[C@@H](O)[C@@H](OC(C)=O)[C@@H](C)O1 [Compound 5, (2R,3R,4R)-4,6-dihydroxy-8-methoxy-2-methyl-5,10-dioxo-3,4,5,10-tetrahydro-2H-benzo[g]chromen-3-yl acetate]	125 μM	–	5 μM	2500 ± 300 nM	2100 ± 100 nM	900 ± 100 nM	–
COc1cc(O)c2c(c1)C(=O)C1=C(C2=O)[C@@H](OC(C)=O)[C@@H](O)[C@@H](C)O1 [Compound 1, (2R,3S,4R)-3,6-dihydroxy-8-methoxy-2-methyl-5,10-dioxo-3,4,5,10-tetrahydro-2H-benzo[g]chromen-4-yl acetate]	125 μM	–	5 μM	500 nM	800 ± 100 nM	300 nM	–
COc1cc(O)c2c(c1)C(=O)C1=C(C2=O)[C@H](O)[C@@H](O)[C@@H](C)O1 (relative stereo) [Compound 3, (2R,3R,4S)-3,4,6-trihydroxy-8-methoxy-2-methyl-3,4-dihydro-2H-benzo[g]chromene-5,10-dione]	25 μM	–	125 μM	–	–	–	125 µM
